Data on 21 compounds can be found in US7598397B2, “Sulfonamide peri-substituted bicyclics for occlusive artery disease” (deCODE genetics ehf, priority 2004, dated 2009).

In test [1] the test system is female C57BL/6 mice. The test can be described thus: pulmonary thromboembolism induced by arachidonic acid (platelet aggregation in vivo). Also noted: species or system mouse. The conditions noted are these: 100 mg/kg orally, 30 min before arachidonic acid 30 mg/kg i.v.; survival one hour after challenge. The method, then: The compounds of the invention also were assayed for their effects on platelet aggregation in vivo. An in vivo test of platelet activation is the induction of pulmonary thromboembolism by arachidonic acid, a precursor of prostaglandin formation. Inhibitors of prostaglandin synthesis, e.g., a COX-1 inhibitor such as asprin, are protective in the assay. For the pulmonary thromboembolism assay, concious female C57BL/6 mice were dosed orally with the test compounds and 30 min later thromboembolism was induced by injection of arachidonic acid into a tail vein at a dose of 30 mg per kg body weight. Survival was evaluated one hour after the challenge with arachidonic acid, as mice that survive for that length of time usually recovered fully. The arachidonic acid injection was given via a lateral tail vein in a mouse that had been warmed briefly under a heat lamp (dilation of the tail veins using heat facilitates placing the injection). An insulin syringe, 0.5 mL (from Becton Dickinson) was used for dosing. The dose volume given of both the test compound and the arachidonic acid was adjusted to the weight of the mouse (the dose volume p.o. for test compounds and i.v. for arachidonic acid solution was 10 μL and 5 μL per gram body weight, respectively). The survival rate for mice treated with arachidonic acid only was 1 per 10 mice evaluated or 10%. Survival rates for mice treated with test compounds (100 mg/kg, orally) and then arachidonic acid are shown below in Table 4.

Test [2] deals with human platelets. The test can be described thus: platelet aggregation in vitro, human platelets. To be noted: Serum % 50, read-out: IC50 (nM) for Test Compounds. In kind it is cell-based. How it is done:
(§1) The compounds of the invention were assayed for their effects on platelet aggregation in vitro. In experiments with human platelets, whole blood was extracted from overnight-fasted human donors. Each experiment was performed with blood from single individual. In experiments with rodent platelets, whole blood was gathered from the heart of female mice or male rats under isofluran (Abbott) anaesthesia. Blood was pooled from two or ten individual rodents for each experiment in the case of rat and mouse experiments, respectively. In all cases, blood was collected into 3.8% sodium citrate tubes (Greiner Bio-one). Platelet-rich plasma (PRP) was obtained by centrifugation at 100×g for 15 min at 25° C. for humans, at 150×g for rats, or at 80×g for 10 min for mice. Platelet-poor plasma was obtained by centrifugation of the remaining blood at 2,400×g for 10 min at 25° C. After counting in an Autocounter (Model 920 EO, Swelab) platelets were diluted when necessary to the desired stock concentrations (200,000-300,000 platelets/μl) using 0.9% NaCl isotonic solution (Braun).
Platelet aggregation was determined by light absorbance using a platelet aggregometer with constant magnetic stirring (Model 490, Chronolog Cop., Havertown, Pa., USA), using a volume of 500 μl per cuvette. During the performance of the experiments, platelet solution was continually agitated by mild horizontal shaking. Collagen (Sigma) and PGE2 or sulprostone (Cayman Chemicals) were used as accelerants of platelet aggregation. Compounds used for this assay were dissolved and stored in a 100% DMSO solution. After dilution, the final DMSO concentration in the assay was lower than 0.1% v/v. […] Acceleration agents and EP3 test compounds were diluted in isotonic solution at the desired concentration. Sigmoidal non-lineal regression was used to calculate the concentration of test compound required to inhibit platelet aggregation by 50% (IC50). IC50 values of test compounds were calculated using GraphPad Prism 3.02 for Windows (GraphPad Software, San Diego Calif. USA). […]

Test [3] concerns rat platelets. The test can be described thus: platelet aggregation in vitro, rat platelets. In kind it is cell-based. The conditions noted are these: Serum % 20, read-out: IC50 (nM) for Test Compounds. The method, then:
as §1
Platelet aggregation was determined by light absorbance using a platelet aggregometer with constant magnetic stirring (Model 490, Chronolog Cop., Havertown, Pa., USA), using a volume of 500 μl per cuvette. […] IC50 values of test compounds were calculated using GraphPad Prism 3.02 for Windows (GraphPad Software, San Diego Calif. USA). […]

Test [4] has as its target T1, prostanoid EP3 receptors (Homo sapiens, UniProt P43115).
T1 sequence (P43115 1-390): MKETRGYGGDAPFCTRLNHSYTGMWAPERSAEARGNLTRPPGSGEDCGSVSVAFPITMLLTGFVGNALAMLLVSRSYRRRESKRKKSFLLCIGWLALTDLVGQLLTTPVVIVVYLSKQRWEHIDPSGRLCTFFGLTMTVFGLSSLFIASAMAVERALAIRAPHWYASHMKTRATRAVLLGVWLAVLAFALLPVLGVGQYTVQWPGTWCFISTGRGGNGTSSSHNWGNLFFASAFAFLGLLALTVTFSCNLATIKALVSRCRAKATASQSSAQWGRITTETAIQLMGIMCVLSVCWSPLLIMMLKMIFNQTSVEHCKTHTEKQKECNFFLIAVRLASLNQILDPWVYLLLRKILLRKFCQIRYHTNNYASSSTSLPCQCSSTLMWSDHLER
The test can be described thus: binding on prostanoid EP3 receptors (method of Abramovitz et al.). The conditions noted are these: read-out: Activity (EP3 receptor binding, IC50 class). The method, then:
The compounds of the invention were assayed for their binding on prostanoid EP3 receptors according to the method of Abramovitz et al. [Bioch. Biophys.

Where two headings read alike, the source gives them in different places.

Regarding `O=C(COc1cccc2[nH]cc(S(=O)(=O)c3ccc4ccccc4c3)c12)NS(=O)(=O)c1cc(Cl)c(Cl)s1` [Compound P150], in test [1], the “No. mice surviving/Total no. of mice evalauted” value was 4/8 and the Survival rate was determined as 50%.
As a reminder, the IC50 is the concentration needed to halve the response being measured. In the case of `Cc1cn(Cc2ccc(Cl)cc2Cl)c2c(C=CC(=O)NS(=O)(=O)c3cc(Cl)c(Cl)s3)cc(F)cc12` [Compound P067], the IC50 in test [2] (Homo sapiens, agonist PGE2 (940 nM) and collagen (0.125 ug.mL)) was 5.15 nM; in test [2] (Homo sapiens, agonist Sulprostone (100 nM) and collagen (0.125 ug.mL)), 9.21 nM; in test [3] (agonist PGE2 (940 nM) and collagen (2.0 ug.mL)) it was 304 nM; in test [3] (agonist Sulprostone (100 nM) and collagen (2.0 ug.mL)) it was 87.8 nM; in test [4], below 1000 nM. Also, in test [1], the “No. mice surviving/Total no. of mice evalauted” value is reported as 15/22. In test [1], this compound registered a Survival rate of 68%.
As to `CC12CCCC(C=CC(=O)NS(=O)(=O)c3cc(Cl)c(Cl)s3)=C1N(Cc1ccc3ccccc3c1)C(=O)C2` (stereo not drawn) [Compound P253], the IC50 in test [2] (agonist Sulprostone (100 nM) and collagen (0.125 ug.mL)) was 15.9 nM; in test [4], below 1000 nM.
For `Cc1cn(Cc2ccc3ccccc3c2)c2c(C=CC(=O)NS(=O)(=O)c3cc(Cl)c(Cl)s3)cc(F)cc12` [Compound P068], in test [1], the “No. mice surviving/Total no. of mice evalauted” value was 4/14 and the Survival rate stood at 28%.
For the compound `Cc1cn(Cc2ccccc2-c2ccccc2)c2c(/C=C/C(=O)NS(=O)(=O)c3cc(Cl)c(Cl)s3)cccc12` [Compound P125], the IC50 in test [4] was below 1000 nM.
In the case of `CC(=O)c1cn(Cc2ccc(Cl)cc2Cl)c2c(C=CC(=O)NS(=O)(=O)c3cccs3)cccc12` [Compound P085], the IC50 in test [4] was below 1000 nM.
Regarding `COc1cccc(CN2C(=O)CC3(C)CCCC(C=CC(=O)NS(=O)(=O)c4cc(F)c(F)cc4F)=C23)c1` (stereo not drawn) [Compound P306], the IC50 in test [4] is below 1000 nM.
For `O=C(C=Cc1cccc2ccn(Cc3ccc(Cl)cc3Cl)c12)NS(=O)(=O)c1cc(Cl)c(Cl)s1` [Compound P129], the IC50 in test [4] was below 1000 nM.
For the compound `O=C(C=Cc1cccc2ccn(Cc3ccc4ccccc4c3)c12)NS(=O)(=O)C(F)(F)F` [Compound P016], the IC50 in test [4] is below 1000 nM.
For the compound `Cc1ccc(S(=O)(=O)NC(=O)OCc2cccc3ccn(Cc4ccc5ccccc5c4)c23)cc1` [Compound P038], in test [4], the IC50 was below 1000 nM.
The same measure, in the same setting: under `O=C(CN1CCCc2cccc(OCc3ccc4ccccc4c3)c21)NS(=O)(=O)c1cccs1` [Compound P015] stands 1000 to 10000 nM; under `Cc1ccc(C)c(Cn2c(=O)oc3cccc(OCC(=O)NS(=O)(=O)c4cccs4)c32)c1` [Compound P053], 1000 to 10000 nM; under `Cn1cc(C=CC(=O)NS(=O)(=O)c2ccc(F)cc2F)c2c(Oc3ccc4ccccc4c3)cccc21` [Compound P358], below 1000 nM.
Still for that read-out and setting: under `O=C(COc1cccc2c1N(Cc1ccc3nonc3c1)C(=O)CO2)NS(=O)(=O)c1cccs1` [Compound P042] stands 1000 to 10000 nM.
In the case of `O=C(C=Cc1cccc2c1N(Cc1ccc3ccccc3c1)C(=O)C21OCCO1)NS(=O)(=O)c1cccs1` [Compound P083], the IC50 in test [4] was below 1000 nM.
For the compound `Cn1c(Sc2c[nH]c3cccc(OCC(=O)NS(=O)(=O)c4cc(Cl)c(Cl)s4)c23)nc2ccccc21` [Compound P195], the 50% inhibitory concentration (IC50) in test [4] was below 1000 nM.
On to `CN1C(=O)C(Oc2ccc3ccccc3c2)c2c(/C=C/C(=O)NS(=O)(=O)c3cc(Cl)c(Cl)s3)cccc21` (stereo not drawn) [Compound P265, 4,5-dichloro-thiophene-2-sulfonic acid {(E)-3-[1-methyl-3-(naphthalen-2-yloxy)-2-oxo-2,3-dihydro-1H-indol-4-yl]-acryloyl}-amide], for which the IC50 in test [4] was below 1000 nM.
As to `Cc1nnc(Sc2c[nH]c3cccc(OCC(=O)NS(=O)(=O)c4cc(Cl)c(Cl)s4)c23)s1` [Compound P230], in test [4], the IC50 is below 1000 nM.
For the compound `Cn1cc(C=CC(=O)NS(=O)(=O)c2cc(F)ccc2F)c2c(Oc3ccc4ccccc4c3)cccc21` [Compound P359], the IC50 in test [4] was below 1000 nM.
Consider `O=C(C=Cc1cccc2ccn(Cc3ccc4ccccc4c3)c12)NS(=O)(=O)c1cccs1` [Compound P001], for which the IC50 in test [4] was below 1000 nM.
Consider `Cc1cn(Cc2cn3ccccc3n2)c2c(C=CC(=O)NS(=O)(=O)c3cc(F)ccc3F)cc(F)cc12` [Compound P407], for which the IC50 in test [4] is below 1000 nM.
